Source: patent US11026876B2, “Composition for improving skin condition comprising chemokines” (TEGO SCIENCE INC., priority 2016, dated 2021)

Key:
Format in all cases: cell-based
[1] = tested on: keratinocytes; test: Evaluation of chemotaxis of keratinocytes (Transwell insert migration); conditions: six hours, FIG. 1; for migration of keratinocytes compared to the negative control: 100 or 500 ng/ml chemokine in lower chamber, vs group not treated with a chemokine; for number of migrated keratinocytes relative to SDF-1α: 100 or 500 ng/ml chemokine, vs SDF-1α positive control
Protocol: The keratinocytes isolated from normal skin tissue were cocultured with 3T3 feeder cells in a DMEM/F12 medium (Invitrogen™, Thermo Fisher Scientific Inc., United States) containing 10% fetal bovine serum (FBS) in a humid environment of 37° C. and 10% CO2. When the cultured cells grew by 70 to 80%, the 3T3 feeder cells were removed and only the keratinocytes were isolated using trypsin-EDTA.
To evaluate chemotaxis of keratinocytes in response to BLC (CXCL13) or TECK (CCL25), cells were cultured using a Transwell® insert (Falcon®, Corning Incorporated, United States) with an opening size of 8 μm, and the number of cells migrated passing through micropores in the insert toward the chemokine were counted. Specifically, the lower chamber of the insert was treated with a chemokine (100 or 500 ng/ml BLC (CXCL13) or 100 or 500 ng/ml TECK (CCL25)), and then cells were placed in wells of the insert in a ratio of 1×10^4 cells per well. After cell incubation in a humid environment of 37° C. and 10% CO2 for six hours, the insert membrane was stained with hematoxylin, and then the number of migrated cells were counted.

[2] = tested on: wound on Neoderm®-ED three-dimensional skin culture model; test: Wound-healing effect (re-epithelialization) in three-dimensional skin culture model; conditions: 500 ng/ml chemokine, five days, FIG. 2; for length of re-epithelialization compared to the negative control: 4-mm biopsy punch wound, vs untreated group; for length of re-epithelialization relative to SDF-1α: vs SDF-1α
Protocol: A Neoderm®-ED (TEGO Science, Korea) consisting of the dermis including collagen and fibroblasts and the epidermis including keratinocytes was prepared. A wound was induced on the Neoderm®-ED using a 4-mm biopsy punch, and the wound was treated with a 500 ng/ml chemokine (BLC (CXCL13) or TECK (CCL25)) and incubated in a humid environment of 37° C. and 10% CO2 for five days. The cultured Neoderm®-ED tissue was separated from insert wells and stained with hematoxylin and eosin (H&E staining). The stained tissue was placed on a glass slide and photographed under a microscope. The obtained images were analyzed using Image-Pro™ image analysis software (Media Cybernetics, Inc., United States) to measure a length of re-epithelialization of the wound.

[3] = tested on: proliferation marker Ki-67; test: Expression of proliferation marker Ki-67 in three-dimensional skin culture model (immunofluorescence); conditions: 100 ng/ml chemokine, 48 hours, Neoderm®-ED, FIGS. 3 and 5; for expression of proliferation marker Ki-67 compared to SDF-1α: vs SDF-1α; for expression of proliferation marker Ki-67 compared to the negative control: vs untreated group
Protocol: (§1) To evaluate the effects of skin regeneration and skin elasticity improvement, a Neoderm®-ED was treated with a 100 ng/ml chemokine (BLC (CXCL13) or TECK (CCL25)) and incubated in a humid environment of 37° C. and 10% CO2 for 48 hours. Then, the Neoderm®-ED was reacted with primary antibodies that bind to markers (i.e., proliferation marker Ki-67 and collagen IV) used to confirm the ability to induce skin regeneration and skin elasticity and then with secondary antibodies labeled with a fluorescent substance. Cell nuclei were stained with 4′,6-diamidino-2-phenylindole (DAPI).

[4] = tested on: collagen IV; test: Expression of collagen IV in three-dimensional skin culture model (immunofluorescence); conditions: 100 ng/ml chemokine, 48 hours, Neoderm®-ED, FIG. 4; for expression of collagen IV compared to SDF-1α: vs SDF-1α; for expression of collagen IV compared to the negative control: vs untreated group
Protocol: as §1

B lymphocyte chemoattractant [BLC (CXCL13)]
migration of keratinocytes compared to the negative control [1]: increased | number of migrated keratinocytes relative to SDF-1α [1]: at least five times more | length of re-epithelialization compared to the negative control [2]: significantly greater length | length of re-epithelialization relative to SDF-1α [2]: at least a three times greater length | expression of proliferation marker Ki-67 compared to SDF-1α [3]: increased more significantly | expression of proliferation marker Ki-67 compared to the negative control [3]: increased | expression of collagen IV compared to SDF-1α [4]: increased more significantly | expression of collagen IV compared to the negative control [4]: increased

B1: thymus-expressed chemokine (protein, UniProt O15444 24-150, looked up)
C-C motif chemokine 25: QGVFEDCCLAYHYPIGWAVLRRAWTYRIQEVSGSCNLPAAIFYLPKRHRKVCGNPKSREVQRAMKLLDARNKVFAKLHHNTQTFQAGPHAVKKLSSGNSKLSSSKFSNPISSSKRNVSLLISANSGL
migration of keratinocytes compared to the negative control [1]: increased | number of migrated keratinocytes relative to SDF-1α [1]: at least five times more | length of re-epithelialization compared to the negative control [2]: significantly greater length | length of re-epithelialization relative to SDF-1α [2]: at least a three times greater length | expression of proliferation marker Ki-67 compared to SDF-1α [3]: increased more significantly | expression of proliferation marker Ki-67 compared to the negative control [3]: increased | expression of collagen IV compared to SDF-1α [4]: increased more significantly | expression of collagen IV compared to the negative control [4]: increased
